One test addresses Cdc7/Dbf4 (Homo sapiens, UniProt O00311). The experiment in a line: Cdc7 biochemical assay Method 2: Cdc7/Dbf4 Enzyme TR-FRET Assay measuring pS40MCM2. Conditions: pS40 MCM2 peptide, 1 μM ATP, 25° C., 120 minutes, read-out: Biochemical Method 2 (pIC50) (converted). The protocol:
This protocol describes a method for assaying a compounds' ability to inhibit Cdc7 activity by measuring pS40MCM2 levels in a Cdc7/Dbf4 Enzyme TR-FRET Assay.
2.5 nM Cdc7/Dbf4 was incubated with 100 nM of biotin-labelled peptide 35-TDALTS(pS)PGRDLP in the presence of 1 μM ATP at 25° C. for 120 minutes. The phosphorylation of the peptide was detected using TR-FRET. Anti-Mcm2 (pS40) antibody, Terbium anti-rabbit secondary antibody and Streptavidin-Alexa Fluor488 form the detection system.

Another test deals with Cdc7 (Homo sapiens, UniProt O00311). Description: Cdc7 cell pharmacodynamics assay Method 2: pS40MCM2 levels in HCT116 cells. The class given is cell-based. As to conditions: 18 hours treatment, read-out: Biomarker Method 2 (pEC50) (converted). Also noted: endogenous in cells. The source says: This protocol describes a method to investigate the inhibition of Cdc7 activity by measuring pS40MCM2 levels in cells, after treatment with compounds.
Chain of Cdc7 (O00311 whole entry): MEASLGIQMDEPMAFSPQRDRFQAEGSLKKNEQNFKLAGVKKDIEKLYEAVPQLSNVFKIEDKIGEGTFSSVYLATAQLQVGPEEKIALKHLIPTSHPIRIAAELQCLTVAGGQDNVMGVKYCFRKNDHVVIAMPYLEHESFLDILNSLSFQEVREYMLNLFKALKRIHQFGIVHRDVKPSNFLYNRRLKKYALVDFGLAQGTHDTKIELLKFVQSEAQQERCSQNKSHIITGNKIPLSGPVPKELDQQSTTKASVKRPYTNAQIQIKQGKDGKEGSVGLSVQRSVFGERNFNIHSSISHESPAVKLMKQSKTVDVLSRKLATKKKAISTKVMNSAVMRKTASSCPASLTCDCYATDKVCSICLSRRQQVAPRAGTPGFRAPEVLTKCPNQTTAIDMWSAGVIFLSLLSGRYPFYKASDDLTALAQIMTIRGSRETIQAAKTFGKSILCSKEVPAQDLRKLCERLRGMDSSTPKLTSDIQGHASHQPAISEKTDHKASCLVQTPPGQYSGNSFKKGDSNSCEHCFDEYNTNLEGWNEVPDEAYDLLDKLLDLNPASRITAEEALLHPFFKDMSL
Chain of Cdc7 (Q9UBU7 whole entry partner): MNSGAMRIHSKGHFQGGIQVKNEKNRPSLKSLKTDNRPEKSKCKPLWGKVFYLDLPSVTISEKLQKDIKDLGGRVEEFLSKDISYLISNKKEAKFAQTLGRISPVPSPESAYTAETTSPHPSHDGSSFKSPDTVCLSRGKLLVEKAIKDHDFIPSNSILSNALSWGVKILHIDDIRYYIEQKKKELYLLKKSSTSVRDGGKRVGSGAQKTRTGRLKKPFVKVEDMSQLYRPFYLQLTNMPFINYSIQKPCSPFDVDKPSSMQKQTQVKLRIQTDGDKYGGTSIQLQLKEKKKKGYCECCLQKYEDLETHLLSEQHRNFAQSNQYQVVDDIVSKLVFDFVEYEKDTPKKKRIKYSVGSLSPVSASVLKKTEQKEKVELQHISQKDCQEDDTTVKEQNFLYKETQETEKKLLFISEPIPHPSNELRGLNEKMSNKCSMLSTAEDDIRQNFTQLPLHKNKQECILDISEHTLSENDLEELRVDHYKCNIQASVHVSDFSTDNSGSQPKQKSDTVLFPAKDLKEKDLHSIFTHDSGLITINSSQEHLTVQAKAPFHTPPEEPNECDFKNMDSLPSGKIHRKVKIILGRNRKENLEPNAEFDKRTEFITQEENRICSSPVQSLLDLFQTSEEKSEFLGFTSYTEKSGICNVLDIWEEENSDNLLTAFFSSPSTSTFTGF
• HCT116 cells (ATCC, #CCL-247) • McCoys 5A with L-glutamine (Cellgro, #10-050-CV) • 10% FCS (Cellgro, #35-010-CV) • D-PBS without CaCl2 and MgCl2 (Cellgro, #21-031-CV) • Trypsin/EDTA (Cellgro, #25-052-CL) • BSA (Calbiochem, 126593) • Cell Extraction Buffer (Invitrogen FNN0011) • Protease inhibitor cocktail (Sigma P-2714) • PMSF 0.3M stock in DMSO (Sigma P7626) • Antibody—rabbit pMCM2 Ser40 (Abeam, AB133243) • Antibody—goat MCM2 (Bethyl #A300-122A) • Antibody—goat Anti Rabbit IgG HRP (Thermo, 31462) • SuperSignal ELISA Pico Chemiluminescent Substrate (Perbio Science UK Ltd 37069) • 10×PBS (Growcells, MRGF-6236) • Triton X100 (Sigma, P-T8787) • DMSO (Fisher, D128-1) • 2-Propanol (J. T. Baker, 9095-03) Method • Seed 1×10^6 HCT116 cells into each of two 175 cm^2 flask containing 30 mL Cell Growth Media and incubate at 37° C., 5% CO2 for 3 days. • Harvest the cells from one T175 cm^2 flask and count. • Dilute with Cell Growth Media to a cell density of 2×10^5. Dispense 100 μL to each well (20,000 HCT116 cells/well) of TC treated 96-well plate(s). • Allow cells to settle overnight in incubator set at 37° C. and 5% CO2. • Cell treatment: Transfer 0.25 μL/well from the compound plate to the wells of the cell plate(s). This is a 1:400 dilution of compound in the assay. • Once all cells are treated place the cells back to the incubator and incubate for 18 hours. • Dilute the capture antibody (total MCM2 #A300-122A) 1 in 250 in the required volume of PBS (5 mL per assay plate, plus 5 mL for dead volume) and add 50 μL to each well of a Hybond plate except wells A12 & B12. Seal the plate and incubate at room temperature fora minimum of 2 hours. • Defrost aliquot of Invitrogen Cell Extraction Buffer (FNN0011) on ice and supplement with appropriate volume of both Sigma protease inhibitor cocktail (P-2714) and PMSF (final cone 1 mM from a 1 M stock in DMSO). • After the 6 hour or 18 hour cell treatment time, tap out the media from the assay plates and place them in the −70° C. freezer for at least 5 minutes. • Flick out the remaining liquid in the previously prepared capture Ab plate(s) and add 200 μL 2% BSA per well. Incubate for 1 hour at room temperature. • Remove plates from freezer and add 20 μL of ice cold complete lysis buffer. Incubate cells for 30 minutes at 4° C. • Add 30 μL per well 2% BSA • At the end of the 1 hour incubation, wash the Capture/ELISA plate(s) with Wash Buffer on the BioTek plate washer. • Transfer 40 μL per well of the lysis plate(s) to the same wells in the Capture/ELISA plate. Incubate cells overnight at 4° C. • At the end of the overnight incubation, wash the ELISA plate(s) with Wash Buffer on BioTek plate washer. • Prepare Detection Antibody Buffer and dispense 50 μL to all wells of ELISA plate(s) except wells G1 & H1. Cover plate and incubate at room temperature for 2 hours with gentle shaking. • At the end of the 2 hour incubation, wash the ELISA plate(s) with Wash Buffer on the BioTek plate washer. • Prepare the Conjugated Antibody Buffer and dispense 50 μL to all wells of ELISA plate(s). • Cover the plate and incubate at room temperature for 1 hour with gentle shaking. • At the end of the 1 hour incubation, wash the ELISA plate(s) with Wash Buffer on the BioTek plate washer. • Prepare Substrate Buffer and dispense 50 μL to all wells of ELISA plate(s). • Incubate for a minimum of 10 minutes and read plates on the EnVision 2100 Multilabel Reader (Mirror: Luminescence (404) & Luminescence 700 (212); Measurement Height: 6.5 mm; Measurement Time: 0.2 s). Method 3

Chain of Cdc7/Dbf4 (O00311 whole entry): as the sequence (O00311 whole entry) above
Chain of Cdc7/Dbf4 (Q9UBU7 whole entry partner): as the sequence (Q9UBU7 whole entry partner) above

As for `C[C@@H]1CNCCN1c1nc(-c2cn[nH]c2C(F)(F)F)[nH]c(=O)c1Cl` [Compound 44, 5-chloro-4-[(2R)-2-methylpiperazin-1-yl]-2-[5-(trifluoromethyl)-1H-pyrazol-4-yl]-1H-pyrimidin-6-one], the IC50 at Cdc7/Dbf4 is 2.69 nM. The EC50 at Cdc7 is 25.1 nM.

As to `Cc1ncsc1-c1nc(C2CCOCC2)c(Cl)c(=O)[nH]1` [Compound 6, 5-chloro-2-(4-methylthiazol-5-yl)-4-tetrahydropyran-4-yl-1H-pyrimidin-6-one], at Cdc7/Dbf4, the IC50 is 1.95 nM.

For `O=c1[nH]c(-c2cn[nH]c2C(F)(F)F)nc(C2CCOCC2)c1Cl` [Compound 17, 5-chloro-4-tetrahydropyran-4-yl-2-[5-(trifluoromethyl)-1H-pyrazol-4-yl]-1H-pyrimidin-6-one], the IC50 at Cdc7/Dbf4 was 1.45 nM. The EC50 at Cdc7 was 372 nM.

Consider `C[C@@H]1CNCCN1c1nc(-c2cn[nH]c2Cl)[nH]c(=O)c1Cl` [Compound 43, 5-chloro-2-(5-chloro-1H-pyrazol-4-yl)-4-[(2R)-2-methylpiperazin-1-yl]-1H-pyrimidin-6-one], for which, at Cdc7/Dbf4, the IC50 is 1.82 nM. On Cdc7, the EC50 is 38 nM.

Consider `C[C@@H]1COCCN1c1nc(-c2cn[nH]c2C(F)(F)F)[nH]c(=O)c1Cl` [Compound 41, 5-chloro-4-[(3R)-3-methylmorpholin-4-yl]-2-[5-(trifluoromethyl)-1H-pyrazol-4-yl]-1H-pyrimidin-6-one], for which the IC50 at Cdc7/Dbf4 is 0.832 nM. In addition, at Cdc7, the EC50 was 7.24 nM.

Source of the values: patent US11766434B2, “Pyrimidinone derivatives as CDC7 inhibitors” (Cancer Research Technology Limited, priority 2016, dated 2023).
